Literature values in patent publication US8895055B2, “Telodendrimer nanodiscs without apolipoprotein” (The Regents of the University of California, priority 2011, dated 2014).

For `C[C@@H]1[C@H](O)[C@@H](C)/C=C/C=C/C=C/C=C/C=C/C=C/C=C/[C@H](O[C@@H]2O[C@H](C)[C@@H](O)[C@H](N)[C@@H]2O)C[C@@H]2O[C@](O)(C[C@@H](O)C[C@@H](O)[C@H](O)CC[C@@H](O)C[C@@H](O)CC(=O)O[C@H]1C)C[C@H](O)[C@H]2C(=O)O` [Amphotericin B], the solubility in water is given as “poorly soluble in water”.
